{
  "source": "patent US20110262450A1",
  "about": "“MODULATORS OF MONOGLYCERIDE LIPASE IN THE TREATMENT OF ACNE, OF SEBORRHOEIC DERMATITIS OR OF HYPERSEBORRHOEA” (priority 2008, published 2011)",
  "key": {"[1]": {"test_system": "MGLL", "assay": "Expression of MGLL in rat sebaceous gland (epidermal split) after topical PPARgamma agonist treatment, real-time PCR", "format": "in vivo", "conditions": "female FUZZY rats, topical 1% in acetone, standardized to 18S, versus carrier group", "source_text": "• Strain: Ico:Hsd:FUZZY-fz • Gender: female • Age: 10 weeks Number per batch: 40 (8 animals per group) Treatment: Route of administration: topical • Compound/batch: PPARgamma agonists: • A: 5-{4-[2-(methylpyridin-2-ylamino)ethoxy]-benzyl}thiazolidine-2,4-dione • B: (2-methoxyethoxymethoxy)naphthalene-2-carboxylic acid [4′-(2,4-dioxothiazolidin-5-ylmethyl)biphenyl-3-ylmethyl]methylamide or rosiglitazone • C: (S)-2-ethoxy-3-{4-[6-(3-heptyl-1-methyl-ureido)pyridin-2-yl)phenyl}propionic acid • Doses: 1% • Carrier: acetone (001) • Duration 96 hours Method of evaluation: The animals are weighed at the beginning and at the end of the study. Skin biopsies are taken (6 samples of skin excised per rat) in order to analyse the expression of the genes (RNA extraction, reverse transcriptase and real-time PCR). The samples are stored overnight at 4° C. before incubation in 1M sodium bromide (NaBr) for 2 hours at 37° C. After incubation, the samples are separated into epidermis or dermis. The epidermal samples are stored at 20° C. […] PCRs are carried out, beginning with the cDNAs originating from the epidermal splits containing sebaceous glands from control rats or rats treated with a PPARγ agonist: the mRNA is extracted using a column and quantified. The quality of the mRNAs is measured and is represented by the 18S/28S ratio. The results are standardized with respect to 18S, expressed as relative induction versus untreated animals (carrier group). The statistical analysis is obtained using internal software based on a modified Monte Carlo statistical analysis."}, "[2]": {"test_system": "Monoglyceride lipase (MGLL)", "assay": "Expression of MGLL in Fuzzy rat epidermal split after topical treatment (Affymetrix transcriptome analysis)", "format": "in vivo", "conditions": "female FUZZY rats, topical 1% once a day for 8 days, Affymetrix 1388644_at, control condition 214", "method": "The studies are carried out in female Fuzzy rats (Hsd: Fuzzy-fz) ten weeks old at the beginning of the study. The animals are treated at a dose of 1% (PPARg agonist rosiglitazone in solution in acetone) once a day for 8 days. Two hours after the final treatment, the animals are sacrificed by euthanasia and the skin on the back is removed. After incubation in dispase, the epidermis carrying the sebaceous glands is detached from the dermis (epidermal split). After grinding of the samples, the mRNA is prepared using Qiagen columns, in accordance with the supplier's instructions. The material thus prepared is subjected to large-scale transcriptome analysis on an Affymetrix platform. The data are subsequently standardized and, after statistical analysis, the results produced are expressed in arbitrary expression units (see below) accompanied, for each piece of data, by a statistical value for presence of the transcript (presence=1; absence=0)."}},
  "data": [
    {"molecule": "CN(CCOc1ccc(CC2SC(=O)NC2=O)cc1)c1ccccn1", "note": "(stereo not shown) [A, 5-{4-[2-(methylpyridin-2-ylamino)ethoxy]-benzyl}thiazolidine-2,4-dione]", "values": [
      {"measurement": "MGLL relative induction, 0 hours", "setting": "[1]", "result": 1},
      {"measurement": "MGLL relative induction, 8 hours", "setting": "[1]", "result": 2.37},
      {"measurement": "MGLL relative induction, 24 hours", "setting": "[1]", "result": 5.06},
      {"measurement": "MGLL relative induction, 48 hours", "setting": "[1]", "result": 3.13},
      {"measurement": "MGLL relative induction, 96 hours", "setting": "[1]", "result": 5.76}
    ]},
    {"molecule": "(2-methoxyethoxymethoxy)naphthalene-2-carboxylic acid [4′-(2,4-dioxothiazolidin-5-ylmethyl)biphenyl-3-ylmethyl]methylamide", "values": [
      {"measurement": "MGLL relative induction, 0 hours", "setting": "[1]", "result": 1},
      {"measurement": "MGLL relative induction, 8 hours", "setting": "[1]", "result": 1.17},
      {"measurement": "MGLL relative induction, 24 hours", "setting": "[1]", "result": 2.21},
      {"measurement": "MGLL relative induction, 48 hours", "setting": "[1]", "result": 3.12},
      {"measurement": "MGLL relative induction, 96 hours", "setting": "[1]", "result": 1.61}
    ]},
    {"molecule": "CCCCCCCNC(=O)N(C)c1cccc(-c2ccc(C[C@H](OCC)C(=O)O)cc2)n1", "note": "[C, (S)-2-ethoxy-3-{4-[6-(3-heptyl-1-methyl-ureido)pyridin-2-yl)phenyl}propionic acid]", "values": [
      {"measurement": "MGLL relative induction, 0 hours", "setting": "[1]", "result": 1},
      {"measurement": "MGLL relative induction, 8 hours", "setting": "[1]", "result": 5.01},
      {"measurement": "MGLL relative induction, 24 hours", "setting": "[1]", "result": 3.90},
      {"measurement": "MGLL relative induction, 48 hours", "setting": "[1]", "result": 3.88},
      {"measurement": "MGLL relative induction, 96 hours", "setting": "[1]", "result": 3.86}
    ]},
    {"molecule": "CN(CCOc1ccc(CC2SC(=O)NC2=O)cc1)c1ccccn1", "note": "(stereo not shown) [rosiglitazone]", "values": [
      {"measurement": "Expression after treatment with 1% rosiglitazone", "setting": "[2]", "result": "576 arbitrary expression units"}
    ]}
  ]
}
